Results: PubChem BioAssay AID330 (DTP/NCI, 2004)
Values joined by “and” are separate entries in the source; they are usually repeats but may differ in a detail not shown here. Identical values can stand only once. Inconclusive results and toxic doses are left out. Rule for the calls: active = survival T/C of 150% or more; inactive = T/C below 125% in these data.

Tested on: P388 leukemia ip, CD2F1 mice, survival T/C
Assay: NCI In Vivo Anticancer Drug Screen. Data for tumor model P388 Leukemia (intraperitoneal) in CD2F1 (CDF1) mice
Conditions: endpoint: median survival time, higher = longer survival
Outline: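 Mice carrying the transplanted tumor received test compound or vehicle. Survival was recorded in each group, and the value is the treated-group measurement divided by that of the vehicle-treated control group.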

[1] = dose: 60.0 mg/kg/injection, schedule: Q01DX005 (ip), vehicle: saline
[2] = dose: 120.0 mg/kg/injection, schedule: Q01DX005 (ip), vehicle: saline
[3] = dose: 240.0 mg/kg/injection, schedule: Q01DX005 (ip), vehicle: saline
[4] = dose: 50.0 mg/kg/injection, schedule: Q01DX009 (ip), vehicle: saline
[5] = dose: 100.0 mg/kg/injection, schedule: Q04DX002 (ip), vehicle: saline
[6] = dose: 200.0 mg/kg/injection, schedule: Q04DX002 (ip), vehicle: saline
[7] = dose: 400.0 mg/kg/injection, schedule: Q04DX002 (ip), vehicle: saline
[8] = dose: 60.0 mg/kg/injection, schedule: Q01DX005 (ip), vehicle: Klucel (hydroxypropylcellulose) (HPC)
[9] = dose: 120.0 mg/kg/injection, schedule: Q01DX005 (ip), vehicle: Klucel (hydroxypropylcellulose) (HPC)
[10] = dose: 50.0 mg/kg/injection, schedule: Q01DX005 (ip), vehicle: saline with Tween-80
[11] = dose: 100.0 mg/kg/injection, schedule: Q01DX005 (ip), vehicle: saline with Tween-80
[12] = dose: 200.0 mg/kg/injection, schedule: Q01DX005 (ip), vehicle: saline with Tween-80
[13] = dose: 12.5 mg/kg/injection, schedule: Q01DX005 (ip), vehicle: saline with Tween-80
[14] = dose: 25.0 mg/kg/injection, schedule: Q01DX005 (ip), vehicle: saline with Tween-80

Measured: T/C

CCCCCCCCCCCC[S+](C)CCCCCCCC (centres undefined)
inactive: dose: 0.78 mg/kg/injection, schedule: Q01DX005 (ip), vehicle: saline with Tween-80 111 % of control and 117 % of control | dose: 1.56 mg/kg/injection, schedule: Q01DX005 (ip), vehicle: saline with Tween-80 122 % of control | dose: 3.13 mg/kg/injection, schedule: Q01DX005 (ip), vehicle: saline with Tween-80 124 % of control

COc1cc(CC(NC(C)=O)C(=O)O)cc(OC)c1OC (centres undefined)
inactive: dose: 100.0 mg/kg/injection, schedule: Q01DX001 (ip), vehicle: saline 105 % of control | dose: 200.0 mg/kg/injection, schedule: Q01DX001 (ip), vehicle: saline 99 % of control | dose: 400.0 mg/kg/injection, schedule: Q01DX001 (ip), vehicle: saline 100 % of control

Cc1cc(C)cc(C(=O)NCc2ccc[n+]([O-])c2)c1
inactive: [1] 97 % of control | [2] 94 % of control

CC(=O)/C(=C\c1ccccc1Cl)C(=O)CCN(C)C
inactive: dose: 40.0 mg/kg/injection, schedule: Q01DX005 (ip), vehicle: saline 115 % of control | [1] 107 % of control and 112 % of control | [2] 121 % of control | [3] 122 % of control

O=C(O)CC(CC(=O)N(CCP(c1ccccc1)c1ccccc1)CCP(c1ccccc1)c1ccccc1)C(=O)O (centres undefined) (tested in a mixture with another compound)
inactive: [4] 111 % of control | dose: 100.0 mg/kg/injection, schedule: Q01DX009 (ip), vehicle: saline 111 % of control | dose: 100.0 mg/kg/injection, schedule: Q04DX003 (ip), vehicle: Klucel (hydroxypropylcellulose) (HPC) 99 % of control | dose: 200.0 mg/kg/injection, schedule: Q01DX009 (ip), vehicle: saline 112 % of control | dose: 200.0 mg/kg/injection, schedule: Q04DX003 (ip), vehicle: Klucel (hydroxypropylcellulose) (HPC) 101 % of control | dose: 400.0 mg/kg/injection, schedule: Q04DX003 (ip), vehicle: Klucel (hydroxypropylcellulose) (HPC) 97 % of control

O=C(CSC1CCc2ccccc21)N/N=C/c1ccco1 (centres undefined)
inactive: dose: 50.0 mg/kg/injection, schedule: Q01DX005 (ip), vehicle: Klucel (hydroxypropylcellulose) (HPC) 98 % of control | dose: 100.0 mg/kg/injection, schedule: Q01DX005 (ip), vehicle: Klucel (hydroxypropylcellulose) (HPC) 100 % of control | dose: 200.0 mg/kg/injection, schedule: Q01DX005 (ip), vehicle: Klucel (hydroxypropylcellulose) (HPC) 88 % of control

CCOC(=O)c1cc2c(ccc3ccccc32)[nH]1
inactive: dose: 60.0 mg/kg/injection, schedule: Q01DX005 (ip), vehicle: saline with Tween-80 97 % of control | dose: 120.0 mg/kg/injection, schedule: Q01DX005 (ip), vehicle: saline with Tween-80 89 % of control

Cc1cc2nc3ccc(N=Nc4ccc(N(C)C)cc4)cc3n(-c3ccccc3)c-2cc1=N
inactive: dose: 0.39 mg/kg/injection, schedule: Q01DX009 (ip), vehicle: saline 113 % of control and 118 % of control | dose: 0.78 mg/kg/injection, schedule: Q01DX009 (ip), vehicle: saline 119 % of control

CNC(=S)N/N=C\C(C)=N/N1CCCCCC1
inactive: [5] 97 % of control | [6] 101 % of control | [7] 93 % of control

C1COCCOCCOCCO1.[Br][Sn]([Br])([Br])[Br]
inactive: [8] 103 % of control | [9] 107 % of control

COC(=O)c1cn[nH]c1CC(N)=O
inactive: [1] 100 % of control | [2] 103 % of control | [3] 103 % of control

CC(C)(Nc1ccccc1)C(=O)OC(C)(C)C(=O)Nc1ccccc1
inactive: [10] 90 % of control | [11] 91 % of control | [12] 91 % of control

CCN(CC)C(=O)C(C)C1=NS(=O)(=O)c2ccccc21 (centres undefined)
inactive: dose: 75.0 mg/kg/injection, schedule: Q04DX003 (ip), vehicle: Klucel (hydroxypropylcellulose) (HPC) 101 % of control | dose: 150.0 mg/kg/injection, schedule: Q04DX003 (ip), vehicle: Klucel (hydroxypropylcellulose) (HPC) 99 % of control | dose: 300.0 mg/kg/injection, schedule: Q04DX003 (ip), vehicle: Klucel (hydroxypropylcellulose) (HPC) 100 % of control

CC[N+]1(CC)c2ccccc2CC1C (centres undefined)
inactive: dose: 6.25 mg/kg/injection, schedule: Q01DX001 (ip), vehicle: saline 97 % of control | dose: 12.5 mg/kg/injection, schedule: Q01DX001 (ip), vehicle: saline 101 % of control | dose: 25.0 mg/kg/injection, schedule: Q01DX001 (ip), vehicle: saline 104 % of control

CC1(C(=O)O)CCCC2(C)C(CC(=O)O)C(=O)CCC12 (centres undefined)
inactive: dose: 5.0 mg/kg/injection, schedule: Q01DX009 (ip), vehicle: saline with Tween-80 101 % of control | dose: 10.0 mg/kg/injection, schedule: Q01DX009 (ip), vehicle: saline with Tween-80 108 % of control | dose: 20.0 mg/kg/injection, schedule: Q01DX009 (ip), vehicle: saline with Tween-80 99 % of control

CSC(=S)c1c(C)cccc1C
inactive: dose: 100.0 mg/kg/injection, schedule: Q04DX003 (ip), vehicle: saline with Tween-80 110 % of control | dose: 200.0 mg/kg/injection, schedule: Q04DX003 (ip), vehicle: saline with Tween-80 100 % of control | dose: 400.0 mg/kg/injection, schedule: Q04DX003 (ip), vehicle: saline with Tween-80 113 % of control

N#CC1SC(C#N)C(c2ccc(Cl)cc2)OC1c1ccc(Cl)cc1 (centres undefined)
inactive: dose: 6.25 mg/kg/injection, schedule: Q01DX005 (ip), vehicle: saline with Tween-80 93 % of control | [13] 91 % of control | [14] 90 % of control | [11] 91 % of control | [12] 104 % of control

OCC(O)CCBr (centres undefined)
active: dose: 264.0 mg/kg/injection, schedule: Q01DX009 (ip), vehicle: saline sonified 159 % of control | dose: 400.0 mg/kg/injection, schedule: Q01DX009 (ip), vehicle: saline sonified 181 % of control | dose: 600.0 mg/kg/injection, schedule: Q01DX009 (ip), vehicle: saline sonified 186 % of control
inactive: dose: 12.5 mg/kg/injection, schedule: Q01DX009 (ip), vehicle: saline with Tween-80 107 % of control | dose: 25.0 mg/kg/injection, schedule: Q01DX009 (ip), vehicle: saline with Tween-80 107 % of control | dose: 50.0 mg/kg/injection, schedule: Q01DX009 (ip), vehicle: saline with Tween-80 114 % of control and 96 % of control | dose: 100.0 mg/kg/injection, schedule: Q01DX009 (ip), vehicle: saline with Tween-80 89 % of control | dose: 100.0 mg/kg/injection, schedule: Q04DX003 (ip), vehicle: saline 118 % of control | dose: 200.0 mg/kg/injection, schedule: Q01DX009 (ip), vehicle: saline with Tween-80 95 % of control | dose: 200.0 mg/kg/injection, schedule: Q04DX003 (ip), vehicle: saline 122 % of control | dose: 264.0 mg/kg/injection, schedule: Q04DX003 (ip), vehicle: saline 110 % of control | dose: 600.0 mg/kg/injection, schedule: Q04DX003 (ip), vehicle: saline 115 % of control

CC(=O)NC1=NN(C(C)=O)C(c2ccccc2)S1=O (centres undefined)
inactive: [10] 108 % of control | [11] 107 % of control

CC(C)=NN/C=N/S(C)(=O)=O
inactive: [5] 105 % of control | [6] 104 % of control | [7] 104 % of control

COc1cc(OC)c2c(c1)OC(=O)C(C(C)=O)C2 (centres undefined)
inactive: [10] 96 % of control | [11] 112 % of control

CC1(C)C=Cc2cc3c(cc2O1)OC[C@H]1c2cc4c(cc2O[C@@H]31)OCO4
inactive: dose: 25.0 mg/kg/injection, schedule: Q04DX002 (ip), vehicle: Klucel (hydroxypropylcellulose) (HPC) 97 % of control | dose: 50.0 mg/kg/injection, schedule: Q04DX002 (ip), vehicle: Klucel (hydroxypropylcellulose) (HPC) 100 % of control | dose: 100.0 mg/kg/injection, schedule: Q04DX002 (ip), vehicle: Klucel (hydroxypropylcellulose) (HPC) 100 % of control | dose: 400.0 mg/kg/injection, schedule: Q04DX002 (ip), vehicle: Klucel (hydroxypropylcellulose) (HPC) 89 % of control

CCCCOCN1C(=O)NC(c2ccccc2)(c2ccccc2)C1=O
inactive: [8] 94 % of control | [9] 94 % of control | dose: 240.0 mg/kg/injection, schedule: Q01DX005 (ip), vehicle: Klucel (hydroxypropylcellulose) (HPC) 94 % of control

CCNc1snc2c1c(=O)[nH]c(=O)n2Cc1ccccc1
inactive: dose: 12.5 mg/kg/injection, schedule: Q01DX009 (ip), vehicle: saline 86 % of control | dose: 25.0 mg/kg/injection, schedule: Q01DX009 (ip), vehicle: saline 90 % of control | [4] 98 % of control and 92 % of control

N#CC=Cc1ccc([N+](=O)[O-])s1 (mixture of isomers)
inactive: [13] 109 % of control | [14] 115 % of control
